Measurements: US5798350A, “Dopamine receptor ligands” (Allelix Biopharmaceuticals, Inc., priority 1996, dated 1998)

Biological target: T1, human D4 receptors (Homo sapiens, UniProt P21917)
T1 construct: expressed in transfected cells
T1 sequence (P21917 1-419): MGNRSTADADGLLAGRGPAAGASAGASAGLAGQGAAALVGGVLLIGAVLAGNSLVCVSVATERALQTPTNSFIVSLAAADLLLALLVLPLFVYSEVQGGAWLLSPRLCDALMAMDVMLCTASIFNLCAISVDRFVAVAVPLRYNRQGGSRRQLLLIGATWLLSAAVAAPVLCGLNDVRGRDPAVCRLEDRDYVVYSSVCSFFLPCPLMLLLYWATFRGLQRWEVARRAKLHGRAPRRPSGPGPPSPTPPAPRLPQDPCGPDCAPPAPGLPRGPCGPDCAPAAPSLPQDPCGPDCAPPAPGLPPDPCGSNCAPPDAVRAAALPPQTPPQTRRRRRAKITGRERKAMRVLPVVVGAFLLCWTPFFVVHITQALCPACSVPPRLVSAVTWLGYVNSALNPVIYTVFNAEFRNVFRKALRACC
Assay: Functional antagonist assay: reversal of dopamine inhibition of forskolin-stimulated adenyl cyclase (cAMP)
Assay type: cell-based
Conditions: dopamine and forskolin both 10 μM, read-out: % REVERSAL OF DOPAMINE EFFECT
Procedure: The D4 receptor responds to dopamine and other agonists by reducing adenyl cyclase mediated production of cyclic AMP. Particular test compounds were assayed for their ability to reverse dopamine inhibition of adenyl cyclase by the following procedure. Forskolin was used to elevate the basal adenyl cyclase activity.
CHO Pro 5 cells stably expressing human D4 receptors were plated in 6 well plates in DMEM (Dulbecco's Modified Eagle Medium)/F12(Nutrient Mixture F12 (Ham)) media with 10% FCS (fetal calf serum) and G418 (Geneticen Disulfate), and incubated at 37° C. in a CO2 incubator. The cells were allowed to grow to about 70% confluence before use in the assay.
The culture media of each well was removed by aspiration, and the wells were washed once with serum free media (SFM) (DMEM/F12) media. Then 2 mL of fresh SFM+IBMX media (SFM with 0.5 mM IBMX (3-isobutyl-1-methylxanthine0.1% ascorbic acid and 10 μM pargyline) was added to each well and then incubated at 37° C. for 10 minutes in CO2 incubator. Following incubation, SFM+IBMX media was aspirated and fresh SFM+IBMX media was added to wells separately with one of a) forskolin (10 μM final conc.); b) dopamine and forskolin (both 10 μM final conc.); and c) test compound ([…]), and dopamine and forskolin (both 10 μM final conc.). Basal adenyl cyclase activity was determined from wells with only SFM+IBMX media added.
The cells were then incubated at 37° C. for 30 minutes in a CO2 incubator. Following incubation the media was aspirated from each well and then washed once with 2 mL of PBS (phosphate buffered saline). Each well was then treated with 1 mL cold 95% ethanol:5 mM EDTA (2:1) at 4° C. for 1 h. The cells from each well were then scraped and transferred into individual Eppendorf tubes. The tubes were centrifuged for 5 minutes at 4° C., and the supernatants were transferred to new Eppendorf tubes. The pellets were discarded and the supernatants dried using a SpeedVac. The extracts were then reconstituted in 600 μL of 0.1M sodium acetate buffer, pH 6.1, and stored at 4° C. until assayed for cAMP concentration. cAMP content measured in fmoles/well for each extract was determined by EIA (enzyme-immunoassay) using Amersham Biotrak cAMP EIA kit (Amersham RPN 225).
Total inhibition (IO) of forskolin-stimulated adenyl cyclase activity by dopamine was determined as the difference in concentration of cAMP in the forskolin-treated cells (Cf) and dopamine-forskolin treated cells (Cd).
Net inhibition (I) of forskolin-stimulated adenyl cyclase activity by dopamine in the presence of an antagonist was determined as the difference in concentration of cAMP in the forskolin-treated cells (Cf) and test compound, dopamine and forskolin treated cells (C).
The ability of a test compound to reverse the dopamine inhibition (% reversal, %R) was determined by the formula: […]

## Clc1ccc2c(c1)C=C(N1CCN(Cc3ccc4c(c3)OCO4)CC1)c1ccccc1S2 [2-chloro-10-(4-piperonyl-1-piperazinyl)dibenzo[b,f]thiepine]
  inhibition at 1 µM: 47%
  inhibition at 10 µM: 40%

## Clc1ccc2c(c1)Nc1ccccc1N=C2N1CCN(Cc2ccc3c(c2)OCO3)CC1 [3-chloro-11-(4-piperonyl-1-piperazinyl)-5H-dibenzo[b,e][1,4]diazepine]
  inhibition at 1 µM: 19%
  inhibition at 10 µM: 50%

## Clc1ccc2c(c1)N=C(N1CCN(Cc3ccc4c(c3)OCO4)CC1)c1ccccc1O2 [8-chloro-11-(4-piperonyl)-1-piperazinyl)dibenz[b,f][1,4]oxazepine]
  inhibition at 1 µM: 46%
  inhibition at 10 µM: 68%

## c1ccc2c(c1)N=C(N1CCN(Cc3ccc4c(c3)OCO4)CC1)c1ccccc1O2 [11-(4-piperonyl)-1-piperazinyl)-dibenz[b,f][1,4]oxazepine]
  inhibition at 1 µM: 40%
  inhibition at 10 µM: 50%
